Reference: ChEMBL document CHEMBL1157773, “Cytotoxic polyphenols from the marine-derived fungus Penicillium expansum” (J Nat Prod, 2010)

How the values were obtained:
HL-60 = test: Cytotoxicity against human HL60 cells after 72 hrs by MTT assay; format: functional, cell-based
A549 = test: Cytotoxicity against human A549 cells after 72 hrs by SRB assay; format: functional, cell-based
[1] = Homo sapiens, HL-60, 72 h, read-out: IC50

Row | Structure (SMILES) | IC50 (HL-60; [1]) | IC50 (A549) | IC50 (HL-60; hl-60)
1 | COC(C)(CCCC(C)C)c1ccc(Cc2c(C)cc(Oc3cc(C)cc(O)c3)cc2O)cc1O (single isomer, unassigned) [EXPANSOL A] | 15.7 µM |  | 
2 | CC(=O)OC[C@@H](C)CCC[C@](C)(O)c1ccc(C(=O)O)cc1O [12-ACETOXYSYDONIC ACID] |  | Not Active | Not Active
3 | C=C(C)CCC[C@](C)(O)c1ccc(C(=O)O)cc1O [11-DEHYDROSYDONIC ACID] |  | Not Active | Not Active
4 | Cc1cc(O)cc(Oc2cc(C)c(Cc3ccc([C@](C)(O)CCCC(C)C)c(O)c3)c(O)c2)c1 [EXPANSOL B] | 5.4 µM |  | 
